From ChEMBL document CHEMBL1201862, “PubChem BioAssay data set” (2004)
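Test compounds were applied to cells in 96-well plates for 48 hours at 5 doses. GI50 marks 50% less growth.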 Activity calls are given as the source filed them. No stated cut-off is given here; in the data, active = GI50 up to about 1.1 µM and inactive = higher.

How the values were obtained:
Test in all cases: growth of human tumour cells (NCI), 48 h
A498 = system: A498
MDA-MB-231 = system: MDA-MB-231
OVCAR-3 = system: OVCAR-3
SK-OV-3 = system: SK-OV-3
A549 = system: A549
SF-295 = system: SF-295
SK-MEL-2 = system: SK-MEL-2
K562 = system: K562
OVCAR-8 = system: OVCAR-8
Hs-578T = system: Hs-578T
SW-620 = system: SW-620
BT-549 = system: BT-549
UACC-257 = system: UACC-257
OVCAR-4 = system: OVCAR-4
786-0 = system: 786-0
U-251 = system: U-251
DU-145 = system: DU-145
COLO 205 = system: COLO 205
MDA-MB-435 = system: MDA-MB-435

Measured: GI50

Cc1ccc(S(=O)(=O)Nc2ccccc2C=O)cc1
inactive: A498 30 µM | MDA-MB-231 15.1 µM | OVCAR-3 16.9 µM | SK-OV-3 26.8 µM | A549 27.1 µM | SF-295 18.9 µM | SK-MEL-2 11.9 µM | K562 8.15 µM | OVCAR-8 14.7 µM | Hs-578T 15.8 µM | SW-620 17 µM | BT-549 18.6 µM | UACC-257 18 µM | OVCAR-4 16.4 µM | 786-0 16.3 µM | U-251 13.1 µM | DU-145 26.1 µM | COLO 205 16.9 µM | MDA-MB-435 10.5 µM

CC1=CC(=O)CC(C)(C)C1(O)/C=C/C(C)=C/C(=O)O (configuration not stated)
inactive: A498 > 100 µM | MDA-MB-231 > 100 µM | OVCAR-3 > 100 µM | SK-OV-3 > 100 µM | A549 > 100 µM | SF-295 > 100 µM | SK-MEL-2 > 100 µM | K562 > 100 µM | OVCAR-8 > 100 µM | Hs-578T > 100 µM | SW-620 > 100 µM | BT-549 > 100 µM | UACC-257 > 100 µM | OVCAR-4 > 100 µM | 786-0 > 100 µM | U-251 > 100 µM | DU-145 > 100 µM | COLO 205 > 100 µM | MDA-MB-435 > 100 µM

O=c1[nH]nc(-c2ccccc2)n1/N=C/c1ccc([N+](=O)[O-])cc1
inactive: A498 14.6 µM | MDA-MB-231 > 33.2 µM | OVCAR-3 19.7 µM | SK-OV-3 2.94 µM | A549 23.9 µM | SF-295 27.2 µM | SK-MEL-2 19.1 µM | K562 > 100 µM | OVCAR-8 10.2 µM | Hs-578T 17 µM | SW-620 > 100 µM | BT-549 > 100 µM | UACC-257 > 100 µM | OVCAR-4 3.85 µM | 786-0 6.64 µM | U-251 4.74 µM | DU-145 56.1 µM | COLO 205 > 100 µM | MDA-MB-435 > 100 µM

COCCOC1=CC(=O)c2c(O)ccc(O)c2C1=O
active: OVCAR-3 0.662 µM | SW-620 0.569 µM | UACC-257 0.203 µM | DU-145 0.893 µM | COLO 205 0.284 µM | MDA-MB-435 0.179 µM
inactive: A498 1.79 µM | MDA-MB-231 1.75 µM | SK-OV-3 8.41 µM | A549 2 µM | SF-295 1.69 µM | SK-MEL-2 1.27 µM | K562 2.69 µM | OVCAR-8 1.73 µM | Hs-578T 4.04 µM | BT-549 1.77 µM | OVCAR-4 1.89 µM | 786-0 1.64 µM | U-251 1.92 µM

Cc1sc2nc3n(c(=O)c2c1C)N=C(c1ccc(Cl)cc1)CS3
inactive: A498 > 100 µM | MDA-MB-231 > 100 µM | OVCAR-3 > 100 µM | SK-OV-3 > 100 µM | A549 > 100 µM | SF-295 > 100 µM | K562 > 100 µM | OVCAR-8 > 100 µM | Hs-578T 82.6 µM | SW-620 > 100 µM | BT-549 31.6 µM | UACC-257 > 100 µM | OVCAR-4 > 100 µM | 786-0 > 100 µM | U-251 > 100 µM | DU-145 > 100 µM | COLO 205 > 100 µM | MDA-MB-435 > 100 µM

COC(=O)Cc1c(C2=Nc3ccccc3C2(O)CC(=O)OC)[nH]c2ccccc12 (configuration not stated)
inactive: A498 > 100 µM | MDA-MB-231 45.2 µM | OVCAR-3 62.1 µM | SK-OV-3 > 100 µM | A549 94 µM | SF-295 45.8 µM | SK-MEL-2 > 100 µM | K562 27 µM | OVCAR-8 49.3 µM | Hs-578T 24.2 µM | SW-620 47.3 µM | BT-549 > 100 µM | UACC-257 > 100 µM | 786-0 41.5 µM | U-251 34.5 µM | DU-145 > 100 µM | COLO 205 20.3 µM | MDA-MB-435 > 100 µM

CC(C)NC(=O)OCc1c(COC(=O)NC(C)C)c(-c2cc[n+](COC(=O)C(C)C)cc2)n2c1CCC2
inactive: A498 13.9 µM | MDA-MB-231 > 100 µM | OVCAR-3 > 100 µM | SK-OV-3 98.4 µM | A549 > 100 µM | SF-295 > 83.2 µM | SK-MEL-2 > 100 µM | K562 > 100 µM | OVCAR-8 > 100 µM | Hs-578T > 100 µM | SW-620 > 100 µM | BT-549 > 100 µM | UACC-257 > 100 µM | OVCAR-4 > 100 µM | 786-0 28 µM | U-251 > 100 µM | DU-145 > 100 µM | COLO 205 > 100 µM | MDA-MB-435 > 100 µM

NC(=S)NN=Cc1ccccc1OCc1cccc(COc2ccccc2C=NNC(N)=S)n1
inactive: A498 17.5 µM | MDA-MB-231 6.92 µM | OVCAR-3 42.1 µM | SK-OV-3 9.89 µM | A549 > 100 µM | SF-295 6.85 µM | SK-MEL-2 6.89 µM | K562 > 100 µM | OVCAR-8 6.01 µM | Hs-578T 18.1 µM | SW-620 > 96.4 µM | BT-549 13.6 µM | UACC-257 > 79.8 µM | OVCAR-4 > 100 µM | 786-0 12.4 µM | U-251 4.55 µM | DU-145 13.7 µM | COLO 205 > 87.7 µM | MDA-MB-435 > 100 µM

O=C1NN=C(c2ccc(Cl)cc2)CC1C1C(=O)N(c2ccccc2)N=C1c1ccccc1 (configuration not stated)
inactive: A498 26.2 µM | MDA-MB-231 35.9 µM | OVCAR-3 27.5 µM | SK-OV-3 39.5 µM | A549 34 µM | SF-295 29.9 µM | SK-MEL-2 25.1 µM | K562 30 µM | OVCAR-8 41.9 µM | Hs-578T 18.8 µM | SW-620 30.5 µM | BT-549 20 µM | OVCAR-4 26.4 µM | 786-0 24.7 µM | U-251 33 µM | DU-145 53.7 µM | COLO 205 41.8 µM | MDA-MB-435 31.6 µM

O=C1Nc2ccccc2S/C1=C\c1ccccc1C(F)(F)F
inactive: A498 > 10 µM | MDA-MB-231 > 100 µM | OVCAR-3 > 100 µM | SK-OV-3 89.5 µM | A549 > 100 µM | SF-295 > 100 µM | SK-MEL-2 > 100 µM | OVCAR-8 72.6 µM | Hs-578T 51.9 µM | SW-620 > 100 µM | BT-549 59.7 µM | UACC-257 > 100 µM | OVCAR-4 18.8 µM | 786-0 44.1 µM | U-251 71.9 µM | DU-145 > 100 µM | COLO 205 > 100 µM | MDA-MB-435 > 100 µM

CC(=O)O[C@H]1CC[C@@]2(C)C(=CC[C@@H]3[C@@H]2CC[C@]2(C)C(=N/O)/C(=C\c4ccccc4)C[C@@H]32)C1
inactive: A498 13.4 µM | MDA-MB-231 20.5 µM | OVCAR-3 11.3 µM | SK-OV-3 28.9 µM | A549 14.4 µM | SF-295 14.8 µM | SK-MEL-2 13 µM | K562 31.2 µM | OVCAR-8 9.71 µM | Hs-578T 22.5 µM | SW-620 20.9 µM | BT-549 16.5 µM | UACC-257 6.52 µM | OVCAR-4 30.1 µM | 786-0 13.9 µM | U-251 24.9 µM | DU-145 23.4 µM | COLO 205 10.6 µM | MDA-MB-435 3.89 µM

CCCCCCCCCCCCOC1C(COCCN2CCCC2)OC2OC(C)(C)OC21 (configuration not stated)
inactive: A498 14 µM | MDA-MB-231 1.5 µM | OVCAR-3 1.62 µM | SK-OV-3 1.63 µM | A549 4.42 µM | SF-295 1.86 µM | SK-MEL-2 1.71 µM | K562 1.23 µM | OVCAR-8 1.64 µM | Hs-578T 1.76 µM | BT-549 1.66 µM | UACC-257 1.75 µM | OVCAR-4 2.03 µM | 786-0 1.68 µM | U-251 1.73 µM | DU-145 10.9 µM | COLO 205 1.82 µM | MDA-MB-435 1.76 µM

N#CC(C#N)/N=N/c1ccc(-c2nc3ccccc3o2)cc1
inactive: A498 13.9 µM | MDA-MB-231 17.8 µM | OVCAR-3 4.19 µM | SK-OV-3 18.6 µM | A549 21 µM | SK-MEL-2 12.4 µM | K562 8.61 µM | OVCAR-8 23.6 µM | Hs-578T 42 µM | SW-620 11.2 µM | BT-549 12.1 µM | UACC-257 4.41 µM | OVCAR-4 12 µM | 786-0 14.4 µM | U-251 14.3 µM | DU-145 13.3 µM | COLO 205 11.7 µM | MDA-MB-435 16.5 µM

O=C(NCCNCCCNC(=O)c1cc(-c2ccccc2)nc2ccccc12)c1cccc(O)c1O
inactive: A498 15.8 µM | MDA-MB-231 4.23 µM | OVCAR-3 2.38 µM | SK-OV-3 6.11 µM | A549 4.72 µM | SF-295 1.84 µM | SK-MEL-2 2.8 µM | K562 2 µM | OVCAR-8 2.38 µM | Hs-578T 13.8 µM | SW-620 4.47 µM | BT-549 2.56 µM | UACC-257 4.01 µM | 786-0 2.62 µM | U-251 2.87 µM | DU-145 3.61 µM | COLO 205 3.18 µM | MDA-MB-435 2.51 µM

OC(/C(=N/c1ccccc1)c1ccccc1)c1ccccc1 (configuration not stated)
inactive: A498 16.1 µM | MDA-MB-231 13.8 µM | OVCAR-3 2.66 µM | SK-OV-3 22.2 µM | A549 11.3 µM | SF-295 9.71 µM | SK-MEL-2 2.26 µM | K562 3.85 µM | Hs-578T 2.29 µM | SW-620 10.5 µM | BT-549 2.68 µM | UACC-257 2.17 µM | OVCAR-4 10.2 µM | 786-0 10.8 µM | U-251 4.1 µM | DU-145 5.35 µM | COLO 205 4.05 µM | MDA-MB-435 2.75 µM
